In patent US8440701B2, “Trisubstituted 1,2,4 triazoles” (Janssen Pharmaceutica NV, priority 2007, dated 2013):

How the values were obtained:
hα7-wt nAChR [1] = molecular target: T1, hα7-wt nAChR (Homo sapiens, UniProt P36544); test: Whole-cell voltage-clamp recording, PAM type classification; format: cell-based; design: key: Type 1 compounds enhance the effect size of the current elicited by 1 mM choline but minimally alter the kinetics of the receptor.; Type 2 compounds enhance the effect size of the current elicited by 1 mM choline while reducing the rate and/or the extent of desensitization.; Type 3 compounds enhance the effect size of the current elicited by 1 mM choline. When tested at higher concentrations up to 10 μM they completely inhibit desensitization, in particular a 1 mM choline application of 250 milliseconds.; Type 4 compounds allow for an initial desensitization of the receptor followed by a re-opening of the receptor during agonist application; conditions: qualitative kinetic properties; 1 mM choline; hα7-wt nAChR-expressing GH4C1 cells
T1 construct: expressed in transfected cells; host or cells: GH4C1 cells (recombinant, stably over-expressing)
T1 sequence (P36544 23-502): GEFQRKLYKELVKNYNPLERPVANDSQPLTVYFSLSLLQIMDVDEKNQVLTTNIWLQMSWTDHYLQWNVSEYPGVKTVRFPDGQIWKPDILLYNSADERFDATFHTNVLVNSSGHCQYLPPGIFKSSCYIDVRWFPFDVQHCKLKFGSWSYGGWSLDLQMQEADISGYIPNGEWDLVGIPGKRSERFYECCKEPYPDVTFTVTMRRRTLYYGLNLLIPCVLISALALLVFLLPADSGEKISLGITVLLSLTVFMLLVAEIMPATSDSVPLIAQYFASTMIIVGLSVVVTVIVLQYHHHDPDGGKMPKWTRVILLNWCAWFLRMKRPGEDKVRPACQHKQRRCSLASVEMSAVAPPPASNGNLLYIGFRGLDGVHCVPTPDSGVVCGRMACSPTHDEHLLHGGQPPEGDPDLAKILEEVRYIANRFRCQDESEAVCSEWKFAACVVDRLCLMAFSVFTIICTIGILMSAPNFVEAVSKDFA
Description: The compounds of the present invention are classified as type 1-4, based on qualitative kinetic properties, as determined by whole-cell voltage-clamp recordings. This classification is based on the effect of an α7 PAM compound, as described hereinbefore, on the signal elicited by an agonist application. In particular, said agonist is choline at a concentration of 1 mM. In a preferred experimental setting, said α7 PAM compound and choline are simultaneously applied to the cell, as described hereinafter. Desensitization is defined as the closure of the receptor upon activation during the application of the agonist in whole-cell voltage-clamp electrophysiology measurements seen as the reduction of the […] current after initial activation by the agonist.
The definition of the PAM types 1-4 is described hereinafter: • Type 1 compounds enhance the effect size of the current elicited by 1 mM choline but minimally alter the kinetics of the receptor. In particular, the rate and the extent of desensitization, elicited by the agonist, is not affected. The compound-modulated response to 1 mM choline, therefore, is a close to linear scaling of the 1 mM choline response in absence of the α7 PAM compound. • Type 2 compounds enhance the effect size of the current elicited by 1 mM choline while reducing the rate and/or the extent of desensitization. • Type 3 compounds enhance the effect size of the current elicited by 1 mM choline. […] At low-potency concentrations of the α7 PAM compound, the agonist-induced activation, which is followed by desensitization, can still be separated from the compound-induced re-opening as an initial inward current-maximum. At higher potency concentrations of the α7 PAM compound, the re-opening occurs faster than the closure due to desensitization so that the initial current-maximum disappears.
The compounds of the present invention also have a potentiating effect on the response to choline when measured by whole-cell voltage-clamp electrophysiology in GH4C1 cells stably over-expressing the human wild-type α7 receptor, as described hereinafter.
Whole-Cell Voltage-Clamp Recording
Whole-cell voltage-clamp recording from mammalian cells has provided a powerful means of assessing the function of membrane proteins thought to be subunits of ligand-gated ion channels. Activation of such proteins by endogenous or exogenous ligands causes opening of a pore associated with the receptor through which ions flow down their electrochemical gradient. In the case of the hα7-wt nAChR-expressing GH4C1 recombinant cell line the preferential permeability to calcium of this receptor means that calcium flows into the cell upon activation by ACh, choline and other nicotinic ligands giving rise to a calcium current. Since this receptor rapidly desensitizes in the presence of an agonist it is important that an application system is used which is capable of very rapid switching of solutions (<100 ms) to prevent partial or full desensitisation of receptor responses coincident with the time of agonist application. Consequently, a second convenient technique to assess the enhancement of nicotinic efficacy is whole-cell voltage-clamp recording from hα7-wt nAChR-expressing GH4C1 cells coupled with a rapid-application system.
• The external recording solution consisted of 152 mM NaCl, 5 mM KCl, 1 mM MgCl2, 1 mM Calcium, 10 mM HEPES; pH 7.3. The internal recording solution consisted of 140 mM CsCl, 10 mM HEPES, 10 mM EGTA, 1 mM MgCl2, pH 7.3. • b) Patch-clamp recording was carried out using a Patch-clamp amplifier (Multiclamp 700A, Axon Instruments, CA, USA). The membrane potential of hα7-wt nAChR-expressing GH4C1 cells was voltage-clamped in the whole cell configuration (Hamill et al, 1981) with a borosilicate glass electrode of 1.5-3 MΩ tip resistance when filled with the internal recording solution. […]

hα7-wt nAChR [2] = molecular target: T1, hα7-wt nAChR; test: Ca2+ flux imaging (FDSS), potentiation of choline response; format: cell-based; conditions: for EC50: hα7-wt nAChR-expressing GH4C1 cells, potentiation of 100 μM choline, compounds 0.01 μM to 30 μM; for Emax: GH4-C1, maximal effect, efficacy of 100 μM choline defined as 100% in the absence of a PAM, GH4C1 cells
Description: Ca^2+ Flux Imaging (FDSS)
• Hanks buffered saline solution (HBSS, Invitrogen, Belgium), supplemented with 10 mM HEPES (Invitrogen, Belgium), CaCl2 to a final concentration of 5 mM, 0.1% Bovine serum albumin (Sigma-Aldrich NV, Belgium). b) Calcium-Sensitive Dye—Fluo-4AM • Fluo-4AM (Molecular Probes, USA) was dissolved in DMSO containing 10% Pluronic acid (Molecular Probes, USA) to give a stock solution which was diluted in assay buffer supplemented with 5 mM probenicid (Sigma, Aldrich NV, Belgium) to give a final concentration of 2 μM. c) 384-Well Plates • Black 384 well plate black/clear plates, PDL pre-coated (Corning, Incorporated, USA) d) Calcium Flux Measurement • A Functional drug screening system (FDSS, Hamamatsu) was used to measure intracellular free-calcium flux signals. Method
Monolayers of hα7-wt nAChR-expressing GH4C1 cells were grown in multi-well plates, in particular black-sided, transparent bottomed 384 well plates coated with poly-D-lysine for 24 hours prior to loading with a fluorescent calcium indicator, in a particular embodiment loading with fluo-4AM for up to 120 minutes.
PAM activity was detected in real time by applying the compound to be tested to the loaded cells along with a α7 nicotinic receptor agonist during constant monitoring of the cellular calcium mobilization by fluorescence in a FDSS. Compounds giving peak fluorescent responses greater than the response due to agonist alone, were considered to be α7 nAChR PAM's. In a particular embodiment, the α7 nicotinic receptor agonist was choline, a more particular embodiment choline applied at a sub-maximal concentration of 100 μM. In a further setting of the present invention the compounds to be tested were applied prior to the α7 nicotinic receptor agonist, in a particular embodiment up to 10 minutes prior to the agonist.
A control response to choline was calculated on each plate from the difference in peak in fluorescence in wells receiving either choline or assay buffer alone. Compounds of the present invention were tested at a concentration range from 0.01 μM to 30 μM. Compounds were considered to have an interesting activity when they potentiated the choline signal at least with 200% when tested at a concentration of 30 μM (the efficacy of 100 μM choline was defined as 100% in the absence of a PAM).
EC50 values (potency), maximal effect (% efficacy), and Hill slopes were estimated by fitting the sigmoidal equation to the data using GraphPad Prism (GraphPad Software, Inc., San Diego, Calif.). An EC50 (or pEC50) was determined as a concentration relating to half the maximal effect, when a clear sigmoidal curve with top plateau was obtained.

| EC50 (hα7-wt nAChR [2]) | melting point | Emax (hα7-wt nAChR [2]) | SMILES | PAM_type (hα7-wt nAChR [1]) |
| --- | --- | --- | --- | --- |
| 355 nM | 161.99 °C | – | CCNc1cc(-c2nc(Nc3cccc(Cl)c3)nn2C[C@@H](O)CC)ccn1 [Compound E2, (S)-1-[3-(3-Chloro-phenylamino)-5-(2-ethylamino-pyridin-4-yl)-[1,2,4]triazol-1-yl]-butan-2-ol] | 2 |
| 1020 nM | 158.66 °C | – | CCNc1cc(-c2nc(Nc3cccc(Cl)c3)nn2C[C@H](O)CC)ccn1 [Compound E29, (R)-1-[3-(3-chloro-phenylamino)-5-(2-ethylamino-pyridin-4-yl)-[1,2,4]triazol-1-yl]-butan-2-ol] | 1 |
| 933 nM | 137.06 °C | 1000% | CCC(O)Cn1nc(Nc2ccc(F)c(F)c2)nc1-c1ccnc(NCCOC)c1 (stereo not drawn) [Compound E9] | 2 |
| 200 nM | 166.05 °C | – | CC[C@H](O)Cn1nc(Nc2cc(OC)cc(C(F)(F)F)c2)nc1-c1cc(C)nc(C)c1 [Compound E30, (S)-1-[5-(2,6-Dimethyl-pyridin-4-yl)-3-(3-methoxy-5-trifluoromethyl-phenylamino)-[1,2,4]triazol-1-yl]-butan-2-ol] | 2 |
| 891 nM | 127.44 °C | – | CCCC(O)Cn1nc(Nc2cccc(Cl)c2)nc1-c1cc(C)nc(C)c1 (single isomer, unassigned) [Compound E23] | 1 |
| 417 nM | 134.82 °C | – | CCCC(O)Cn1nc(Nc2ccc(F)c(F)c2)nc1-c1ccnc(C)c1 (single isomer, unassigned) [Compound E16] | 2 |
| 1780 nM | 117.16 °C | – | CCC(O)Cn1nc(Nc2cc(OC)cc(C(F)(F)F)c2)nc1-c1ccnc(C)c1 (single isomer, unassigned) [Compound E28] | 2 |
| 692 nM | 156.18 °C | – | CCNc1cc(-c2nc(Nc3ccc(F)c(F)c3)nn2CC(O)CC)ccn1 (stereo not drawn) [Compound E25] | 1 |
| 955 nM | 142.72 °C | – | CCC(O)Cn1nc(Nc2ccc(F)c(F)c2)nc1-c1ccnc(C)c1 (single isomer, unassigned) [Compound E6] | 2 |
| 776 nM | 145.29 °C | 580% | CCC(O)Cn1nc(Nc2ccc(F)c(F)c2)nc1-c1ccnc(C)c1 (single isomer, unassigned) [Compound E26] | 1 |
| 245 nM | 141.14 °C | 490% | CCCC(O)Cn1nc(Nc2ccc(F)c(F)c2)nc1-c1cc(C)nc(C)c1 (single isomer, unassigned) [Compound E13] | 1 |
